Laboratory results published in US6288091A, “Antiherpes virus compounds and methods for their preparation and use” (Boehringer Ingelheim Ltd., priority 1999, dated 2001).
pEC50: −log10 of the molar value. Read-outs that look alike come from different tables or passages of the source.

What was measured:
HSV-1 strain F or KOS = assay: Inhibition of herpes simplex virus (HSV-1) replication in cell culture (BHK-21 cells, glycoprotein C ELISA); format: cell-based
In short: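 Replication readout: ELISA for HSV-1 late glycoprotein C (mAb C11, peroxidase-OPD, 450 nm) on glutaraldehyde-fixed cells. Monolayers (~50,000 cells/well) were infected with strain F or KOS (MOI 0.05 PFU/cell), then incubated 24 h at 37° with compound in 2% FBS α-MEM. EC50 derived from % inhibition.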

HCMV (strain AD169) = assay: Inhibition of HCMV replication, ELISA assay (Hs-68 cells); format: cell-based, Human Cytomegalovirus (HCMV); conditions: read-out: ELISA CMV EC50
In short: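 EC50 derived from % inhibition of viral replication, read as p28 late-protein ELISA signal (mAb UL99, peroxidase/OPD, 450 nm) on fixed cells. Read-out came 8 days post-infection at 37 °C in DMEM with 5% FBS plus compound, after 2 h adsorption of AD169 at MOI 0.01 PFU/cell onto near-confluent Hs-68 cells.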

[1] = Human alphaherpesvirus 1, BHK-21, Group 1 Table 3 entries
[2] = Human betaherpesvirus 5, AD169, Hs68, Group 1 Table 3 entries
[3] = Human alphaherpesvirus 1, BHK-21, Group 1 Table 2 entries
[4] = Human betaherpesvirus 5, AD169, Hs68, Group 1 Table 2 entries
[5] = Human alphaherpesvirus 1, BHK-21, Group 1 Table 1 entries
[6] = Human betaherpesvirus 5, AD169, Hs68, Group 1 Table 1 entries
[7] = Human alphaherpesvirus 1, BHK-21, Group 1 Table 5 entries
[8] = Human betaherpesvirus 5, AD169, Hs68, Group 1 Table 5 entries

How did the pEC50 (HSV-1 strain F or KOS; [1]) turn out when CN(C(=O)CN(Cc1ccccc1)C(=O)C1CCCCC1)c1ccc(-c2csc(N)n2)cc1 [Example 1] was run?
Its pEC50 is 7.80.

And the pEC50 (HCMV (strain AD169); [2])?
Its pEC50 is less than 4.34.

What does the source list for Nc1nc(-c2ccc(NC(=O)CCNCc3ccccc3)cc2)cs1 [Example 1]?
pEC50 (HSV-1 strain F or KOS; [3]): 5.22; pEC50 (HCMV (strain AD169); [4]): 5.49

How did the pEC50 (HSV-1 strain F or KOS; [5]) turn out when Nc1nc(-c2ccc(NC(=O)CNCc3ccccc3)cc2)cs1 [Example 1] was run?
The pEC50 was 5.57.

What about the pEC50 (HCMV (strain AD169); [6]) of the same compound?
The pEC50 was 4.60.

Nc1nc(-c2ccc(NC(=O)CCN(Cc3ccccc3)Cc3ccccc3)cc2)cs1 [Example 2] was tested. Which pEC50 (HSV-1 strain F or KOS; [3]) did it give?
Its pEC50 is 5.66.

And the pEC50 (HCMV (strain AD169); [4])?
The pEC50 was 6.26.

What does the source list for CC(C)(C)OC(=O)N[C@@H](Cc1ccccc1)C(=O)Nc1ccc(-c2csc(N)n2)cc1 [Example 3]?
pEC50 (HSV-1 strain F or KOS; [7]): 7.80; pEC50 (HCMV (strain AD169); [8]): 6.85

Which results are given for Nc1nc(-c2ccc(NC(=O)CCN(Cc3ccccc3)C(=O)c3ccccc3)cc2)cs1 [Example 3]?
pEC50 (HSV-1 strain F or KOS; [3]): 5.66; pEC50 (HCMV (strain AD169); [4]): 5.92

Nc1nc(-c2ccc(NC(=O)CNCCCc3ccccc3)cc2)cs1 [Example 3] was tested. Which pEC50 (HSV-1 strain F or KOS; [5]) did it give?
The pEC50 was 4.74.

What about the pEC50 (HCMV (strain AD169); [6]) of the same compound?
The pEC50 was 5.74.

Which results are given for CC(C)(C)OC(=O)N[C@H](Cc1ccccc1)C(=O)Nc1ccc(-c2csc(N)n2)cc1 [Example 4]?
pEC50 (HSV-1 strain F or KOS; [7]): 6.24; pEC50 (HCMV (strain AD169); [8]): 6.60

Which results are given for Nc1nc(-c2ccc(NC(=O)CCNCc3cccc(F)c3)cc2)cs1 [Example 4]?
pEC50 (HSV-1 strain F or KOS; [3]): 5.66; pEC50 (HCMV (strain AD169); [4]): 5.18

O=C(CN(Cc1ccccc1)C(=O)C1CCCCC1)Nc1ccc(-c2cscn2)cc1 [Example 5] was tested. Which pEC50 (HSV-1 strain F or KOS; [1]) did it give?
Its pEC50 is 7.92.

What about the pEC50 (HCMV (strain AD169); [2]) of the same compound?
The pEC50 was less than 4.20.

CNc1nc(-c2ccc(NC(=O)CN(Cc3ccccc3)C(=O)c3ccccc3)cc2)cs1 [Example 6] was tested. Which pEC50 (HSV-1 strain F or KOS; [1]) did it give?
Its pEC50 is 7.92.

What about the pEC50 (HCMV (strain AD169); [2]) of the same compound?
The pEC50 was 4.29.

Nc1nc(-c2ccc(NC(=O)[C@H](Cc3ccccc3)NCc3ccccc3)cc2)cs1 [Example 6] was tested. Which pEC50 (HSV-1 strain F or KOS; [7]) did it give?
Its pEC50 is 6.08.

What about the pEC50 (HCMV (strain AD169); [8]) of the same compound?
Its pEC50 is 6.85.

Which results are given for CN[C@@H](Cc1ccccc1)C(=O)Nc1ccc(-c2csc(N)n2)cc1 [Example 8]?
pEC50 (HSV-1 strain F or KOS; [7]): 4.85; pEC50 (HCMV (strain AD169); [8]): 5.96

Which results are given for Nc1nc(-c2ccc(NC(=O)CCN(Cc3ccccc3)C(=O)C3CCCCC3)cc2)cs1 [Example 8]?
pEC50 (HSV-1 strain F or KOS; [3]): 5.96; pEC50 (HCMV (strain AD169); [4]): 5.07

How did the pEC50 (HSV-1 strain F or KOS; [7]) turn out when Nc1nc(-c2ccc(NC(=O)[C@@H](Cc3ccccc3)N(Cc3ccccc3)C(=O)C3CCCCC3)cc2)cs1 [Example 9] was run?
The pEC50 was 6.54.

What about the pEC50 (HCMV (strain AD169); [8]) of the same compound?
The pEC50 was 5.40.

How did the pEC50 (HSV-1 strain F or KOS; [5]) turn out when C[C@H](NCC(=O)Nc1ccc(-c2csc(N)n2)cc1)c1ccccc1 [Example 10] was run?
Its pEC50 is 5.66.

And the pEC50 (HCMV (strain AD169); [6])?
The pEC50 was 5.66.

Which results are given for Nc1nc(-c2ccc(NC(=O)CCNC3Cc4ccccc4C3)cc2)cs1 [Example 10]?
pEC50 (HSV-1 strain F or KOS; [3]): 5.41; pEC50 (HCMV (strain AD169); [4]): 5.12

Which results are given for CN(C)c1nc(-c2ccc(NC(=O)CN(Cc3ccccc3)C(=O)c3ccccc3)cc2)cs1 [Example 11]?
pEC50 (HSV-1 strain F or KOS; [1]): 7.62; pEC50 (HCMV (strain AD169); [2]): 5.46

C[C@@H](NCC(=O)Nc1ccc(-c2csc(N)n2)cc1)c1ccccc1 [Example 11] was tested. Which pEC50 (HSV-1 strain F or KOS; [5]) did it give?
The pEC50 was 5.89.

And the pEC50 (HCMV (strain AD169); [6])?
The pEC50 was 4.72.

Nc1nc(-c2ccc(NC(=O)CCN(C(=O)c3cccnc3)C3Cc4ccccc4C3)cc2)cs1 [Example 12] was tested. Which pEC50 (HSV-1 strain F or KOS; [3]) did it give?
Its pEC50 is 5.12.

What about the pEC50 (HCMV (strain AD169); [4]) of the same compound?
Its pEC50 is 5.19.

What does the source list for CC(C)(C)OC(=O)N(CCC(=O)Nc1ccc(-c2csc(N)n2)cc1)C1Cc2ccccc2C1 [Example 14]?
pEC50 (HSV-1 strain F or KOS; [3]): 5.74; pEC50 (HCMV (strain AD169); [4]): 6.70

Which results are given for CC(C)(C)OC(=O)N(CCC(=O)Nc1ccc(-c2csc(N)n2)cc1)Cc1ccccc1 [Example 15]?
pEC50 (HSV-1 strain F or KOS; [3]): 6.19; pEC50 (HCMV (strain AD169); [4]): 4.95

What does the source list for CN(CC(=O)Nc1ccc(-c2csc(N)n2)cc1)Cc1ccccc1 [Example 15]?
pEC50 (HSV-1 strain F or KOS; [5]): 6.02; pEC50 (HCMV (strain AD169); [6]): 5.21

Which results are given for Nc1nc(-c2ccc(NC(=O)CCN(Cc3ccccc3)C(=O)OCc3ccccc3)cc2)cs1 [Example 16]?
pEC50 (HSV-1 strain F or KOS; [3]): 5.59; pEC50 (HCMV (strain AD169); [4]): 5.15

With Nc1nc(-c2ccc(NC(=O)CN(Cc3ccccc3)Cc3ccccc3)cc2)cs1 [Example 16] as the compound, how does the pEC50 (HSV-1 strain F or KOS; [5]) read?
The pEC50 was 6.35.

What about the pEC50 (HCMV (strain AD169); [6]) of the same compound?
The pEC50 was 5.42.

What does the source list for Nc1nc(-c2ccc(NC(=O)CCN(Cc3ccccc3)CC3CCCCC3)cc2)cs1 [Example 17]?
pEC50 (HSV-1 strain F or KOS; [3]): 5.74; pEC50 (HCMV (strain AD169); [4]): 5.33

How did the pEC50 (HSV-1 strain F or KOS; [1]) turn out when CC(=O)Nc1nc(-c2ccc(NC(=O)CN(Cc3ccccc3)C(C)=O)cc2)cs1 [Example 18] was run?
Its pEC50 is less than 4.52.

And the pEC50 (HCMV (strain AD169); [2])?
Its pEC50 is 5.55.

C[C@@H](c1ccccc1)N(CCC(=O)Nc1ccc(-c2csc(N)n2)cc1)C(=O)OC(C)(C)C [Example 18] was tested. Which pEC50 (HSV-1 strain F or KOS; [3]) did it give?
Its pEC50 is 5.80.

What about the pEC50 (HCMV (strain AD169); [4]) of the same compound?
Its pEC50 is 5.54.

With C[C@@H](c1ccccc1)N(CCC(=O)Nc1ccc(-c2csc(N)n2)cc1)Cc1ccccc1 [Example 19] as the compound, how does the pEC50 (HSV-1 strain F or KOS; [3]) read?
The pEC50 was 6.05.

And the pEC50 (HCMV (strain AD169); [4])?
The pEC50 was 5.51.

With CC(C)c1nc(-c2ccc(NC(=O)CN(Cc3ccccc3)C(=O)c3ccccc3)cc2)cs1 [Example 20] as the compound, how does the pEC50 (HSV-1 strain F or KOS; [1]) read?
Its pEC50 is less than 4.60.

And the pEC50 (HCMV (strain AD169); [2])?
The pEC50 was 5.48.

How did the pEC50 (HSV-1 strain F or KOS; [3]) turn out when C[C@H](NCCC(=O)Nc1ccc(-c2csc(N)n2)cc1)c1ccccc1 [Example 20] was run?
The pEC50 was 5.89.

What about the pEC50 (HCMV (strain AD169); [4]) of the same compound?
Its pEC50 is 6.10.
